Test results from publication PMC3789969, “The Allosteric Role of the AAA^+ Domain of ChlD Protein from the Magnesium Chelatase of Synechocystis Species PCC 6803” (The Journal of Biological Chemistry, 2013).

Target: T1, magnesium chelatase (ChlI, His6-ChlD, His6-ChlH); porphyrin site (Synechocystis sp. PCC 6803, UniProt P73020)
T1 construct: recombinant from E. coli; His6 tags on ChlD and ChlH; copies are assay ratio; with Magnesium-chelatase subunit ChlI; Magnesium-chelatase subunit ChlD
Test: continuous fluorometric MgDIX formation assay, Michaelis-Menten fit
Assay type: biochemical
Settings: 5 mM ATP, Mg2+ (mutant not saturated with Mg2+), pH 7.7, 34 °C, I 0.1

T1 sequence (P51634 whole entry, form open): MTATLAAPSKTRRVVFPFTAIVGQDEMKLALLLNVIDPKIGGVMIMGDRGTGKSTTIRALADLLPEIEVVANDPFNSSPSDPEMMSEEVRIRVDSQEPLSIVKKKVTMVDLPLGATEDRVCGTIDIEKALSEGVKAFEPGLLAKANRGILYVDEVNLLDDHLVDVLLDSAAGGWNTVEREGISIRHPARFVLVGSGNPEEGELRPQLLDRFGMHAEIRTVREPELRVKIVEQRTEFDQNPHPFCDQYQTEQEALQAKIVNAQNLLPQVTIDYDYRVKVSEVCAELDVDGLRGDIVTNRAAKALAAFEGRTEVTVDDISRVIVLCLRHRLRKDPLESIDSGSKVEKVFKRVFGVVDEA
T1 sequence (P73020 entry or part of it, form open): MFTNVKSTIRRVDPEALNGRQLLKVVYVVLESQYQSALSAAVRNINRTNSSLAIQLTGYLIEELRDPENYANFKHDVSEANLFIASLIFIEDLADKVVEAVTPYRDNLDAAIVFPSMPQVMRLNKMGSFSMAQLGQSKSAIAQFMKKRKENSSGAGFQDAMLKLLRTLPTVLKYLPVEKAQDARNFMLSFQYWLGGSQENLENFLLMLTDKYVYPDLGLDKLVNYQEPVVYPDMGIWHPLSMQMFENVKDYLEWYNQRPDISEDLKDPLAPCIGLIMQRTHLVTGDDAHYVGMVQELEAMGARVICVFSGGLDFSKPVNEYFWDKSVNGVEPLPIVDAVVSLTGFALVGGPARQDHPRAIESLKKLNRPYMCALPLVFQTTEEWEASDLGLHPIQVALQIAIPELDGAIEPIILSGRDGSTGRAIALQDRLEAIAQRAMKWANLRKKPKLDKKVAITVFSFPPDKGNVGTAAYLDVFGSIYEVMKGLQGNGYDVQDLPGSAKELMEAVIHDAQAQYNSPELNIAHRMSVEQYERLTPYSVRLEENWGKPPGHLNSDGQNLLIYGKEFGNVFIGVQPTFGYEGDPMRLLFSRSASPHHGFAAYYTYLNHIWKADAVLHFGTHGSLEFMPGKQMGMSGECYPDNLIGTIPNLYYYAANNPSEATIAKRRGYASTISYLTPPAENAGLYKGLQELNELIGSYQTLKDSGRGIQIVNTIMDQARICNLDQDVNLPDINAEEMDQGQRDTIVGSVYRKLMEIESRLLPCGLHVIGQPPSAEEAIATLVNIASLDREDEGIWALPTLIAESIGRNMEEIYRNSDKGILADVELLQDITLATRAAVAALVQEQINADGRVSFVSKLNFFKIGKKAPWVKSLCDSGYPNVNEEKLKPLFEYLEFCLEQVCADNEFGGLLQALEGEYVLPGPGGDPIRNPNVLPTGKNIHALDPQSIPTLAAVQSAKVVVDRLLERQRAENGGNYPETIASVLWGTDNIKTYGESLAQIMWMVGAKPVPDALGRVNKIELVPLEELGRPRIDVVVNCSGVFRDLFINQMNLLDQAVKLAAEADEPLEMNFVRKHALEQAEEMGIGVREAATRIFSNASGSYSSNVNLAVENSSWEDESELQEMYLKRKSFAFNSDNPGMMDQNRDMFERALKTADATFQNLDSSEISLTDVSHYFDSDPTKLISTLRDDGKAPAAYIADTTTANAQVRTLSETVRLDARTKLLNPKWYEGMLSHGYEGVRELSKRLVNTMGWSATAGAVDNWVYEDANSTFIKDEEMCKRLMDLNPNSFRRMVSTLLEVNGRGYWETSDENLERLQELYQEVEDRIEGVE
T1 sequence (P72772 whole entry R289A, form open, further chain): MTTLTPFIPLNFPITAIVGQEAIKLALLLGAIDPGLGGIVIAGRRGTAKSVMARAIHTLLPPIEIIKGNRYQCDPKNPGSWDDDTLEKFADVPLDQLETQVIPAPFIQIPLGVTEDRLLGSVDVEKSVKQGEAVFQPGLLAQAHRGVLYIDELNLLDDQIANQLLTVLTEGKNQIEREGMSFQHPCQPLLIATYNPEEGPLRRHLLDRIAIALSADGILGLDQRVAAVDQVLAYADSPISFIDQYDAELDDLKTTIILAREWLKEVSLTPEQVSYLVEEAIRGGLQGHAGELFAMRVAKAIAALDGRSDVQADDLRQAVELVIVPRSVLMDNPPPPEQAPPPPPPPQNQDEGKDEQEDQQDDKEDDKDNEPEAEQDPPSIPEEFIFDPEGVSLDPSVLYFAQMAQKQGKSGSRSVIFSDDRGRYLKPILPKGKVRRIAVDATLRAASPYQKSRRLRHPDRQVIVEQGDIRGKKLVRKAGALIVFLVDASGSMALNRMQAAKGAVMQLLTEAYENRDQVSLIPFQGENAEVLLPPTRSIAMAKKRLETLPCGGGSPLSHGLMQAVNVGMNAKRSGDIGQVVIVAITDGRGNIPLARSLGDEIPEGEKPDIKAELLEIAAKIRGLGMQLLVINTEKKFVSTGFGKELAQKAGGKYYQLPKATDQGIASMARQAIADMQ

Km: 0.99 ± 0.12 µM
Compound: CC1=C(CCC(=O)O)c2cc3nc(cc4[nH]c(cc4C)cc4[nH]c(cc1n2)cc4C)C(C)=C3CCC(=O)O [deuteroporphyrin IX]
